# Experimental data: patent publication US20040063721A1, “Agonism of the 5HT2A receptor for treatment of thermoregulatory dysfunction” (Wyeth, priority 2002, published 2004)
# Entries after “also recorded” stand apart in the source; their conditions may differ.
# Test system: morphine-dependent rat model of vasomotor instability
# Assay: Morphine-dependent naloxone-induced flush model (tail skin temperature)
# Type: in vivo
# Settings: for effect on basal tail skin temperature prior to administration of naloxone: ovariectomized morphine-dependent rats, MDL-100907 0.3, 1 mg/kg, DOI 1 mg/kg, FIG. 1
# [1] = Example 3, fluoxetine 10 mg/kg sc 1 h prior and/or WAY-100635 1 mg/kg sc 20 min prior to naloxone, FIG. 3
# [2] = Example 1, sc 20 min prior to naloxone
# [3] = Example 2, sc 20 min prior to naloxone, 5HT2c agonist 0.1, 3.0 mg/kg, 5HT2c antagonist 0.1, 1.0 mg/kg, FIG. 2
structure (smiles),measurement,setting,value
CNCCC(Oc1ccc(C(F)(F)F)cc1)c1ccccc1 (stereo not shown) [fluoxetine],"abatement of naloxone-induced flush (changes in TST, Δ°C, mean, over time)",[1],did not significantly abate naloxone-induced flush
same,abatement of naloxone-induced flush by fluoxetine alone,"Example 5, fluoxetine 10 mg/kg sc",ineffective
same,abatement of naloxone-induced hot flush by fluoxetine alone,"Example 5, fluoxetine 30 mg/kg sc",abates a naloxone-induced hot flush
"COc1ccccc1N1CCN(CCN(C(=O)C2CCCCC2)c2ccccn2)CC1 [WAY-100635, N-[2-[4-(2-Methoxyphenyl)-1-piperazinyl]ethyl]-N-2-pyridinylcyclohexanecarboxamide]","abatement of naloxone-induced flush (changes in TST, Δ°C, mean, over time)",[1],did not significantly abate naloxone-induced flush
same,ED50,"Rattus norvegicus, 0.25 h, Example 4, WAY-100635 0.01, 0.1 or 1.0 mg/kg sc combined with fluoxetine 10 mg/kg, 15 min post-naloxone, FIG. 4B, read-out: ED50 value, abatement of naloxone-induced flush at maximal flush",0.01 ± 0.009 mg/kg
COc1cccc([C@H](O)C2CCN(CCc3ccc(F)cc3)CC2)c1OC [MDL-100907],effect on basal tail skin temperature prior to administration of naloxone,[2],significantly induced an increase in tail skin temperature
same,effect on the combination drug abatement of the naloxone-induced flush at maximal flush,"Example 5, MDL-100907 0.01 or 0.1 mg/kg 55 min prior to naloxone, then fluoxetine 10 mg/kg + WAY-100635 0.01 mg/kg, 15 min post-naloxone, FIG. 5A",dose-dependently reversed
same,effect on fluoxetine (10 mg/kg) action on naloxone-induced flush at maximal flush,"Example 5, MDL-100907 0.01 or 0.1 mg/kg 55 min prior to naloxone, then fluoxetine 10 mg/kg, 15 min post-naloxone, FIG. 5B",potentiated
same,effect on fluoxetine (30 mg/kg) abatement of naloxone-induced hot flush,"Example 5, MDL-100907 0.01 or 0.1 mg/kg prior to fluoxetine 30 mg/kg, FIG. 5C",potentiated the abatement effect
Cc1cc2c(cc1Cl)N(C(=O)Nc1ccc(Oc3cccnc3C)nc1)CC2 [6-Chloro-5-methyl-1-[[2-[(2-methyl3-pyridyl)oxy]-5-pyridyl]carbamoyl]indoline],"abatement of naloxone-induced flush (changes in TST, Δ°C, mean, over time)",[3],did not significantly abate naloxone-induced flush
"COc1cc(CC(C)N)c(OC)cc1I.Cl (stereo not shown) [DOI, 1-(2,5-dimethoxy-4-iodophenyl)-2-aminopropane hydrochloride]",abatement of naloxone-induced flush (change in TST),"Example 1, DOI 1 mg/kg sc 20 min prior to naloxone, FIG. 1B, hydrochloride",preventing a naloxone-induced increase in tail-skin temperature; also recorded: significantly abated the naloxone-induced flush
same,effect on basal tail skin temperature prior to administration of naloxone,[2],without affecting basal tail skin temperature
"c1cc2c3c(c1)[C@H]1CCC[C@H]1N3CCNC2 [(7bR, 10aR)-1,2,3,4,8,9,10,10a-octahydro-7bH-cyclopenta[b][1,4]diazepino[6,7,1-hi]indole]","abatement of naloxone-induced flush (changes in TST, Δ°C, mean, over time)",[3],did not significantly abate naloxone-induced flush
